The values below come from the OligoGym collection.

Oligonucleotides are given in HELM: sugar(base)linkage, 5' to 3'; d 2'-deoxyribose, r ribose, m 2'-O-methylribose, p phosphate. ss, as = sense and antisense strand
Note: test concentration or dose not given here.

The target of the first data set is Mmp7 (rat). Nature of the data set: reporter assay of Huesken 2005. The settings on record: siRNA.
“RNA1{r(U)p.r(G)p.r(C)p.r(C)p.r(U)p.r(U)p.r(U)p.r(G)p.r(C)p.r(A)p.r(C)p.r(C)p.r(G)p.r(G)p.r(G)p.r(G)p.r(C)p.r(C)p.r(A)p.d(T)p.d(T)}|RNA2{r(U)p.r(G)p.r(G)p.r(C)p.r(C)p.r(C)p.r(C)p.r(G)p.r(G)p.r(U)p.r(G)p.r(C)p.r(A)p.r(A)p.r(A)p.r(G)p.r(G)p.r(C)p.r(A)p.d(T)p.d(G)}$$$RNA1{StrandType:ss}|RNA2{StrandType:as}$”: the normalised inhibition (eCFP-eYFP dual reporter) is 59.1%. For the substance “RNA1{r(U)p.r(G)p.r(G)p.r(A)p.r(C)p.r(G)p.r(G)p.r(A)p.r(U)p.r(G)p.r(G)p.r(U)p.r(G)p.r(A)p.r(G)p.r(G)p.r(A)p.r(C)p.r(U)p.d(T)p.d(T)}|RNA2{r(A)p.r(G)p.r(U)p.r(C)p.r(C)p.r(U)p.r(C)p.r(A)p.r(C)p.r(C)p.r(A)p.r(U)p.r(C)p.r(C)p.r(G)p.r(U)p.r(C)p.r(C)p.r(A)p.d(G)p.d(T)}$$$RNA1{StrandType:ss}|RNA2{StrandType:as}$”, the normalised inhibition (eCFP-eYFP dual reporter) worked out at 52.5%.

As to “RNA1{r(U)p.r(G)p.r(G)p.r(A)p.r(G)p.r(U)p.r(G)p.r(C)p.r(C)p.r(A)p.r(G)p.r(A)p.r(U)p.r(G)p.r(U)p.r(U)p.r(G)p.r(C)p.r(A)p.d(T)p.d(T)}|RNA2{r(U)p.r(G)p.r(C)p.r(A)p.r(A)p.r(C)p.r(A)p.r(U)p.r(C)p.r(U)p.r(G)p.r(G)p.r(C)p.r(A)p.r(C)p.r(U)p.r(C)p.r(C)p.r(A)p.d(C)p.d(A)}$$$RNA1{StrandType:ss}|RNA2{StrandType:as}$”, the normalised inhibition (eCFP-eYFP dual reporter) was determined as 91.3%.

With “RNA1{r(U)p.r(G)p.r(G)p.r(C)p.r(C)p.r(C)p.r(U)p.r(G)p.r(C)p.r(C)p.r(A)p.r(C)p.r(U)p.r(G)p.r(U)p.r(C)p.r(C)p.r(C)p.r(A)p.d(T)p.d(T)}|RNA2{r(U)p.r(G)p.r(G)p.r(G)p.r(A)p.r(C)p.r(A)p.r(G)p.r(U)p.r(G)p.r(G)p.r(C)p.r(A)p.r(G)p.r(G)p.r(G)p.r(C)p.r(C)p.r(A)p.d(G)p.d(G)}$$$RNA1{StrandType:ss}|RNA2{StrandType:as}$”, the normalised inhibition (eCFP-eYFP dual reporter) is 93.6%. On to “RNA1{r(U)p.r(G)p.r(G)p.r(G)p.r(A)p.r(A)p.r(C)p.r(A)p.r(G)p.r(G)p.r(C)p.r(G)p.r(C)p.r(A)p.r(G)p.r(A)p.r(A)p.r(U)p.r(U)p.d(T)p.d(T)}|RNA2{r(A)p.r(A)p.r(U)p.r(U)p.r(C)p.r(U)p.r(G)p.r(C)p.r(G)p.r(C)p.r(C)p.r(U)p.r(G)p.r(U)p.r(U)p.r(C)p.r(C)p.r(C)p.r(A)p.d(C)p.d(T)}$$$RNA1{StrandType:ss}|RNA2{StrandType:as}$”, for which the normalised inhibition (eCFP-eYFP dual reporter) was 46.8%. The same measure, in the same setting: the value for “RNA1{r(U)p.r(G)p.r(G)p.r(U)p.r(G)p.r(A)p.r(G)p.r(G)p.r(A)p.r(C)p.r(U)p.r(C)p.r(A)p.r(G)p.r(G)p.r(C)p.r(G)p.r(U)p.r(G)p.d(T)p.d(T)}|RNA2{r(C)p.r(A)p.r(C)p.r(G)p.r(C)p.r(C)p.r(U)p.r(G)p.r(A)p.r(G)p.r(U)p.r(C)p.r(C)p.r(U)p.r(C)p.r(A)p.r(C)p.r(C)p.r(A)p.d(T)p.d(C)}$$$RNA1{StrandType:ss}|RNA2{StrandType:as}$” was 69.8%. Regarding “RNA1{r(U)p.r(G)p.r(U)p.r(G)p.r(A)p.r(U)p.r(G)p.r(U)p.r(A)p.r(C)p.r(C)p.r(C)p.r(U)p.r(A)p.r(C)p.r(C)p.r(U)p.r(A)p.r(U)p.d(T)p.d(T)}|RNA2{r(A)p.r(U)p.r(A)p.r(G)p.r(G)p.r(U)p.r(A)p.r(G)p.r(G)p.r(G)p.r(U)p.r(A)p.r(C)p.r(A)p.r(U)p.r(C)p.r(A)p.r(C)p.r(A)p.d(G)p.d(A)}$$$RNA1{StrandType:ss}|RNA2{StrandType:as}$”, the normalised inhibition (eCFP-eYFP dual reporter) was found to be 107%. Still for that read-out and setting: the value for “RNA1{r(U)p.r(G)p.r(U)p.r(U)p.r(U)p.r(G)p.r(U)p.r(U)p.r(G)p.r(C)p.r(C)p.r(A)p.r(C)p.r(U)p.r(C)p.r(A)p.r(U)p.r(G)p.r(A)p.d(T)p.d(T)}|RNA2{r(U)p.r(C)p.r(A)p.r(U)p.r(G)p.r(A)p.r(G)p.r(U)p.r(G)p.r(G)p.r(C)p.r(A)p.r(A)p.r(C)p.r(A)p.r(A)p.r(A)p.r(C)p.r(A)p.d(G)p.d(G)}$$$RNA1{StrandType:ss}|RNA2{StrandType:as}$” was 105%; that for “RNA1{r(U)p.r(U)p.r(A)p.r(C)p.r(C)p.r(U)p.r(U)p.r(C)p.r(A)p.r(C)p.r(G)p.r(A)p.r(C)p.r(U)p.r(C)p.r(U)p.r(A)p.r(A)p.r(A)p.d(T)p.d(T)}|RNA2{r(U)p.r(U)p.r(U)p.r(A)p.r(G)p.r(A)p.r(G)p.r(U)p.r(C)p.r(G)p.r(U)p.r(G)p.r(A)p.r(A)p.r(G)p.r(G)p.r(U)p.r(A)p.r(A)p.d(A)p.d(A)}$$$RNA1{StrandType:ss}|RNA2{StrandType:as}$” was 131%.

For “RNA1{r(U)p.r(U)p.r(C)p.r(A)p.r(G)p.r(A)p.r(A)p.r(G)p.r(A)p.r(C)p.r(U)p.r(U)p.r(C)p.r(A)p.r(G)p.r(U)p.r(C)p.r(U)p.r(U)p.d(T)p.d(T)}|RNA2{r(A)p.r(A)p.r(G)p.r(A)p.r(C)p.r(U)p.r(G)p.r(A)p.r(A)p.r(G)p.r(U)p.r(C)p.r(U)p.r(U)p.r(C)p.r(U)p.r(G)p.r(A)p.r(A)p.d(T)p.d(G)}$$$RNA1{StrandType:ss}|RNA2{StrandType:as}$”, the normalised inhibition (eCFP-eYFP dual reporter) was 92.5%. The same measure, in the same setting: to “RNA1{r(U)p.r(U)p.r(C)p.r(C)p.r(U)p.r(G)p.r(U)p.r(U)p.r(U)p.r(G)p.r(U)p.r(U)p.r(G)p.r(C)p.r(C)p.r(A)p.r(C)p.r(U)p.r(C)p.d(T)p.d(T)}|RNA2{r(G)p.r(A)p.r(G)p.r(U)p.r(G)p.r(G)p.r(C)p.r(A)p.r(A)p.r(C)p.r(A)p.r(A)p.r(A)p.r(C)p.r(A)p.r(G)p.r(G)p.r(A)p.r(A)p.d(G)p.d(T)}$$$RNA1{StrandType:ss}|RNA2{StrandType:as}$” belongs 37.6%; to “RNA1{r(U)p.r(U)p.r(C)p.r(G)p.r(C)p.r(A)p.r(A)p.r(G)p.r(G)p.r(G)p.r(G)p.r(A)p.r(G)p.r(A)p.r(U)p.r(C)p.r(A)p.r(C)p.r(G)p.d(T)p.d(T)}|RNA2{r(C)p.r(G)p.r(U)p.r(G)p.r(A)p.r(U)p.r(C)p.r(U)p.r(C)p.r(C)p.r(C)p.r(C)p.r(U)p.r(U)p.r(G)p.r(C)p.r(G)p.r(A)p.r(A)p.d(G)p.d(C)}$$$RNA1{StrandType:ss}|RNA2{StrandType:as}$”, 26.8%; to “RNA1{r(U)p.r(U)p.r(G)p.r(C)p.r(C)p.r(G)p.r(G)p.r(A)p.r(G)p.r(A)p.r(C)p.r(U)p.r(G)p.r(G)p.r(A)p.r(A)p.r(A)p.r(G)p.r(C)p.d(T)p.d(T)}|RNA2{r(G)p.r(C)p.r(U)p.r(U)p.r(U)p.r(C)p.r(C)p.r(A)p.r(G)p.r(U)p.r(C)p.r(U)p.r(C)p.r(C)p.r(G)p.r(G)p.r(C)p.r(A)p.r(A)p.d(A)p.d(C)}$$$RNA1{StrandType:ss}|RNA2{StrandType:as}$”, 1.9%.

“RNA1{r(U)p.r(U)p.r(U)p.r(A)p.r(C)p.r(C)p.r(U)p.r(U)p.r(C)p.r(A)p.r(C)p.r(G)p.r(A)p.r(C)p.r(U)p.r(C)p.r(U)p.r(A)p.r(A)p.d(T)p.d(T)}|RNA2{r(U)p.r(U)p.r(A)p.r(G)p.r(A)p.r(G)p.r(U)p.r(C)p.r(G)p.r(U)p.r(G)p.r(A)p.r(A)p.r(G)p.r(G)p.r(U)p.r(A)p.r(A)p.r(A)p.d(A)p.d(T)}$$$RNA1{StrandType:ss}|RNA2{StrandType:as}$”: the normalised inhibition (eCFP-eYFP dual reporter) was found to be 110%.

Another data set addresses TMEM63B. The data set can be described thus: reporter assay of Huesken 2005. The note with it: siRNA. (In general: A reporter such as luciferase makes a cellular process visible.)
With “RNA1{r(A)p.r(A)p.r(C)p.r(C)p.r(A)p.r(C)p.r(C)p.r(A)p.r(U)p.r(U)p.r(G)p.r(C)p.r(C)p.r(A)p.r(A)p.r(C)p.r(U)p.r(U)p.r(G)p.d(T)p.d(T)}|RNA2{r(C)p.r(A)p.r(A)p.r(G)p.r(U)p.r(U)p.r(G)p.r(G)p.r(C)p.r(A)p.r(A)p.r(U)p.r(G)p.r(G)p.r(U)p.r(G)p.r(G)p.r(U)p.r(U)p.d(C)p.d(T)}$$$RNA1{StrandType:ss}|RNA2{StrandType:as}$”, the normalised inhibition (eCFP-eYFP dual reporter) is 34.2%. Take “RNA1{r(A)p.r(A)p.r(C)p.r(G)p.r(C)p.r(C)p.r(A)p.r(U)p.r(G)p.r(G)p.r(A)p.r(C)p.r(C)p.r(U)p.r(G)p.r(C)p.r(U)p.r(G)p.r(C)p.d(T)p.d(T)}|RNA2{r(G)p.r(C)p.r(A)p.r(G)p.r(C)p.r(A)p.r(G)p.r(G)p.r(U)p.r(C)p.r(C)p.r(A)p.r(U)p.r(G)p.r(G)p.r(C)p.r(G)p.r(U)p.r(U)p.d(G)p.d(C)}$$$RNA1{StrandType:ss}|RNA2{StrandType:as}$”: the normalised inhibition (eCFP-eYFP dual reporter) came to 27.2%. Still for that read-out and setting: the value for “RNA1{r(A)p.r(A)p.r(C)p.r(G)p.r(U)p.r(G)p.r(C)p.r(C)p.r(U)p.r(A)p.r(C)p.r(C)p.r(A)p.r(U)p.r(G)p.r(A)p.r(U)p.r(C)p.r(A)p.d(T)p.d(T)}|RNA2{r(U)p.r(G)p.r(A)p.r(U)p.r(C)p.r(A)p.r(U)p.r(G)p.r(G)p.r(U)p.r(A)p.r(G)p.r(G)p.r(C)p.r(A)p.r(C)p.r(G)p.r(U)p.r(U)p.d(C)p.d(T)}$$$RNA1{StrandType:ss}|RNA2{StrandType:as}$” was 80.1%.

Turning to “RNA1{r(A)p.r(A)p.r(G)p.r(A)p.r(U)p.r(C)p.r(A)p.r(A)p.r(G)p.r(A)p.r(A)p.r(G)p.r(C)p.r(A)p.r(U)p.r(U)p.r(U)p.r(U)p.r(G)p.d(T)p.d(T)}|RNA2{r(C)p.r(A)p.r(A)p.r(A)p.r(A)p.r(U)p.r(G)p.r(C)p.r(U)p.r(U)p.r(C)p.r(U)p.r(U)p.r(G)p.r(A)p.r(U)p.r(C)p.r(U)p.r(U)p.d(T)p.d(T)}$$$RNA1{StrandType:ss}|RNA2{StrandType:as}$”, the normalised inhibition (eCFP-eYFP dual reporter) came to 61.7%. “RNA1{r(A)p.r(A)p.r(G)p.r(G)p.r(A)p.r(G)p.r(A)p.r(A)p.r(C)p.r(G)p.r(U)p.r(G)p.r(C)p.r(C)p.r(U)p.r(A)p.r(C)p.r(C)p.r(A)p.d(T)p.d(T)}|RNA2{r(U)p.r(G)p.r(G)p.r(U)p.r(A)p.r(G)p.r(G)p.r(C)p.r(A)p.r(C)p.r(G)p.r(U)p.r(U)p.r(C)p.r(U)p.r(C)p.r(C)p.r(U)p.r(U)p.d(G)p.d(C)}$$$RNA1{StrandType:ss}|RNA2{StrandType:as}$”: the normalised inhibition (eCFP-eYFP dual reporter) is 70.2%. For “RNA1{r(A)p.r(C)p.r(A)p.r(G)p.r(C)p.r(C)p.r(A)p.r(U)p.r(G)p.r(A)p.r(C)p.r(C)p.r(G)p.r(G)p.r(U)p.r(A)p.r(U)p.r(G)p.r(A)p.d(T)p.d(T)}|RNA2{r(U)p.r(C)p.r(A)p.r(U)p.r(A)p.r(C)p.r(C)p.r(G)p.r(G)p.r(U)p.r(C)p.r(A)p.r(U)p.r(G)p.r(G)p.r(C)p.r(U)p.r(G)p.r(U)p.d(C)p.d(C)}$$$RNA1{StrandType:ss}|RNA2{StrandType:as}$”, the normalised inhibition (eCFP-eYFP dual reporter) turned out to be 56.4%.
